Measured values from paper PMC3904457 (ACS medicinal chemistry letters, 2013).

Target: T1, COX-1 (Ovis aries, UniProt P05979)
T1 sequence (P05979 25-600): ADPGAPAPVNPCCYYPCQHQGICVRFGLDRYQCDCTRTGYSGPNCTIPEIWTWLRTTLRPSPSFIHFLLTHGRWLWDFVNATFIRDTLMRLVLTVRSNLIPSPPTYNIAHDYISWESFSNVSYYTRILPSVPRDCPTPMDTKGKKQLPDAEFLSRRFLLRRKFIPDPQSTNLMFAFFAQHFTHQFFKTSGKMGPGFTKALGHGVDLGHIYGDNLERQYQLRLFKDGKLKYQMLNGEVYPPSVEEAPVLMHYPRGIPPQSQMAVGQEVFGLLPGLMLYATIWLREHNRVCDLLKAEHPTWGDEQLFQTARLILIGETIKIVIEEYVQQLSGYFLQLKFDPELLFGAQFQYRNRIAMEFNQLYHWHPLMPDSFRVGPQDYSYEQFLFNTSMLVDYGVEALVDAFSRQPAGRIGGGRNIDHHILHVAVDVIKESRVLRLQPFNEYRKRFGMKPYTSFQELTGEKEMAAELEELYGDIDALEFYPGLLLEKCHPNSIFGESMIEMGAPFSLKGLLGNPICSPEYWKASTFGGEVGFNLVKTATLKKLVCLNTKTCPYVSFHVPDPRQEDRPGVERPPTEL
Experiment: inhibition of COX-1-catalyzed oxidation of arachidonic acid
Type: biochemical
Conditions: at concentrations up to 1 mM

With `Cc1nc2c(c(C)c1O)CNC(=O)N2` [compound 13] the “COX-1 inhibition (in words)” value was “not able to significantly inhibit COX-1”.
